Experimental data as given in patent US7385039B2, “Methods and compositions for regulating imidazoline receptors” (priority 1998, dated 2008).
“Also recorded” adds a separate entry of the source.

What was measured:
Imidazoline I Sites = test: [125I]p-iodoclonidine competition binding to bovine RVLM membranes, imidazoline sites; settings: bovine RVLM membranes, [125I]PIC; read-out: K1 in RVLM, parallel assays
Text: Whole bovine brains and adrenal glands were obtained from a local slaughterhouse. Brains were immediately placed on a chilled glass plate, washed with ice-cold Krebs'-Henseleit buffer, and dissected. The rostral medulla was isolated by transecting the brainstem rostrally at the posterior margin of the trapezoid body and caudally 1 cm caudal to the obex. The pia-arachnoid was removed, and the lateral medulla was isolated by a sagittal section through the lateral margin of the pyramids, and then bisected. The ventral half was defined as the ventrolateral medulla (VLM). Brain samples were transported on ice to the laboratory and processed immediately.
Fresh bovine VLM was homogenized by using a polytron (Tekmar Tissuemizer, setting 80 for 2×15 sec) in 20 volumes of ice-cold Hepes-buffered isotonic sucrose (pH brought to 7.4 with Tris base) containing the protease inhibitors (1,10)-phenanthroline (100 μM) and phenylmethylsulfonyl fluoride (50 μM) in order to inhibit degradation of receptor protein. Bovine adrenomedullary cells were homogenized in 15 ml Hepes-buffered isotonic sucrose by 10 strokes in a glass-glass hand-held homogenizer. All three homogenates were centrifuged at 1000×g for 5 min at 4° C. to remove nuclei and debris. The pellets (P1) were resuspended in 20 ml of homogenization buffer, and centrifuged again at 1000×g for 5 min. The combined supernatants were centrifuged at 48,000 g for 18 min at 4° C., and the resulting P2 pellet was resuspended in 10 to 25 volumes of 50 mM Tris-HCl buffer (pH 7.7) containing 5 mM EDTA. After recentrifugation at 48,000 g for 18 min, the resulting membrane pellet was resuspended in Tris-HCl containing 25 mM NaCl, preincubated for 30 min at 25° C., chilled on ice, centrifuged again, resuspended a final time in Tris-HCl alone, centrifuged, flash-frozen, and stored at −70° C. for up to three months.
Radioligand binding assays with [^3H]clonidine or [^125I]p-iodoclonidine for determination of specific membrane binding to VLM and renal medulla imidazoline sites and α2-adrenergic receptors were performed by a modification of methods previously described (Ernsberger P. et al., 1997, J. Hypertension 1997, 15:S9-S23). Membranes were slowly thawed and resuspended in Tris-Hepes buffer (5.0 mM; pH 7.7 at 25° C., containing 0.5 mM EDTA, 0.5 mM EGTA, and 0.5 mM MgCl2) at a concentration of 1 mg protein/ml for the VLM, 4 mg protein/ml for the renal medulla, and 0.2 mg protein/ml for adrenomedullary cells. Assays were conducted in a total volume of 250 μl in polypropylene 96-well plates (Beckman Macrowell), and each well contained 125 μl membrane suspension, 25 μl radioligand, and 100 μl drug or vehicle. Incubations were initiated by the addition of membrane and were carried out for 30 min at 22° C. Nonspecific binding was defined in the presence of 10 μM BDF-6143, an imidazoline adrenergic agent. Specific α2-adrenergic binding was defined by inhibition with (−)epinephrine (0.1 mM). In experiments using catecholamines, all samples contained ascorbic acid in a final concentration of 0.001%. Incubations were terminated by vacuum filtration using a cell harvester (Brandel) equipped with Teflon tubing to reduce absorption of the radioligand over glass fiber filters (Schleicher & Schuell #34) which were preincubated for 4 h at 4° C. in 0.03% polyethylimine to reduce nonspecific binding to the filter. The filters were washed four times with 5 ml ice-cold Tris-HCl, placed in scintillation vials, covered with 4 ml scintillation cocktail (BioSafe II, Research Products International), and counted at 50% efficiency (Beckman LS5801). Protein was assayed by the bicinchoninic acid method.
Data were obtained as dpm and transferred to the Equilibrium Binding Data Analysis (EBDA) program for initial processing; 4 to 10 experiments were analyzed simultaneously by using the LIGAND program for nonlinear curve-fitting. Protein assay data were also analyzed by nonlinear curve-fitting.
Competition binding assays. […]

I1R = I1R model: [3H]arachidonic acid release from PC-12 cells; type: cell-based
Description: Assays for measuring imidazoline receptor-mediated arachidonic acid release from PC12 cells is as described in Ernsberger et al., (1995, FASEB J. 9:A114).
I1R model: [^3H]Arachidonic acid (AA) release from PC-12 cells. Assays (Emsberger, P. (1998) J. Auton. Nerv. Syst. 72, 147-154 Ernsberger, P. (1998) J. Auton. Nerv. Syst. 72, 147-154) were done after a 30 min washout to attain a stable background. Cells were superfused with 0.01% BSA in Krebs buffer for seven 1-min fractions (baseline), then treated with 10 μM or 100 μM I-4-AA-RP alone, or together with efaroxan (10 μM), a prototypical I1-antagonist/I3-agonist. Controls included baseline release with vehicle alone (0-7 min) or vehicle containing efaroxan (5 min) before adding I-4-AA-RP. [^3H]products (>98% AA) collected in each 1-min fraction were expressed as fractional release defined as % total radioactivity incorporated into cells, corrected for [^3H]AA previously released (Ernsberger, P. (1998) J. Auton. Nerv. Syst. 72, 147-154).

I3R [1] = test: I3R model: insulin release from rat islets of Langerhans; type: cell-based; settings: for stimulation of insulin release (in words): rat islets
Description: Islets of Langerhans from male Wistar rats were isolated by collagenase digestion in a medium of bicarbonate-buffered physiological saline solution containing 4 mM D-glucose and 1 mM CaCl2. Islets were selected under a binocular dissecting microscope and were used within two hours of isolation. Islets from humans were isolated from heart-beating cadaver organ donors by collagenase digestion and density gradient centrifugation (Chan, S. L. F., et al., 1997, Brit. J. Pharmacol. 120:926-932).
Incubations were done in 96-well plates. Isolated islets were incubated in 100 μl buffer solution supplemented with bovine serum albumin in humidified air: CO2 (95:5%) at 37° C. in the presence of test agents. To eliminate any potential alpha-2 responses, yohimbine (10 μM), a potent alpha2-adrenergic blocker, was included in all incubations. After 60 min incubation, samples of medium were removed for measurement of insulin release by radioimmunoassay using anti-bovine insulin antiserum. Presence of insulin in the test media were compared to controls; positive differences represented amounts of insulin released. In reversal experiments, diazoxide (e.g., 200 μM) was pre-incubated to block glucose-induced insulin release. In these studies, test reagents were used to determine if they were capable of overcoming diazoxide's inhibitory effects on K+ ATP channels, a well known action of imidazoline secretagogues in islet cells. For example, efaroxan (an inhibitor of I-1 responses in adrenal medullary cells) is a well known I-3 agonist, i.e., it stimulates (at 100 μM) release of insulin and overcomes diazoxide inhibition thus illustrating again the dictomy between I1 and I3 receptor subtypes.
I3R model: Insulin release from pancreas (Eglen, R. M., Hudson, A. L., Kendall, D. A., Nutt, D. J., Morgan, N. G., Wilson, V. G. & Dillon, M. P. (1998) TIPS 19, 381-390; Chan, S. L. F. (1998) Gen. Pharmacol. 31, 525-529; Morgan, N. G. (1999) Exp. Opin. Invest. Drugs 8, 575-584). Islets of Langerhans from male Wistar rats or human pancreata were isolated by collagenase digestion. Hand-picked islets were incubated in NaHCO3-buffered saline containing 1 mM CaCl2, 1 mg/ml BSA and test reagents. After incubation, insulin levels in supernatants were analyzed by RIA. The I3-blocker, KU-14R, served to verify I3R function.

SH rats = test: Mean arterial pressure and heart rate after microinjection into the RVLM of rats; type: in vivo, rat
Description: Effects of ribotide on mean arterial pressure (MAP) and heart rate (HR). Bilateral I-4-AA-RP microinjections (60 nl, 100 nmol) into the RVLM of SH rats were performed (Emsberger, P. & Haxhiu, M. A. (1997) Am. J. Physiol. 273, R1572-R1579) after the sympatho-excitatory area was confirmed by showing glutamate-induced MAP elevation ≧30 mm Hg. MAP and HR values were measured every 5 min. After each experiment, the injection site was marked by infusion of rhodamine microspheres. Changes were assessed relative to baseline values by two-way repeated measures ANOVA and Dunnett's test. A second group of SH rats (injection controls) received vehicle injections to control for injection effects and for volume artifacts due to multiple injections. Vehicle contained 2 nmol rilmenidine, a sub-threshold dose, far below that known to cause any detectable effect (Gomez, R. E., Emsberger, P., Feinland, G. & Reis, D. J. (1991) Eur. J. Pharmacol. 195, 181-191). In a follow-up study, SH rats (N=6) were given I-4-AA-RP then moxonidine. When used alone, it reduces MAP to normotensive levels (Emsberger, P., Elliott, H. L., Weimann, H.-J., Raap, A., Haxhiu, M. A., Hofferber, E., Low-Kroger, A., Reid, J. L. & Mest, H. J. (1993) Cardiovas. Drug Rev. 11, 411-431).

I3R [2] = settings: cited from earlier work

O=C(O)Cc1cn([C@@H]2O[C@H](CO)[C@@H](O)[C@H]2O)cn1 [IAA-R, 1-(β-D-ribofuranosyl)-imidazole-4-acetic acid]
Ki (Imidazoline I Sites): 266 ± 48 µM
stimulation of [3H]AA release (in words) (I1R; IAA-R 10 μM-1 mM): no significant response
reversal of the inhibitory action of diazoxide on glucose-induced insulin release (I3R [1]): able to reverse the inhibitory action of diazoxide
activity relative to IAA-RP's maximal activity on insulin release (I3R [1]; paired experiment, pancreatic beta cells): < 50%
stimulation of insulin release (in words) (I3R [1]): potent stimulants of insulin release
change of heart rate (HR) (SH rats; SH rats, 100 nmol into RVLM): did not alter MAP or HR significantly
effect on MAP (in words) (SH rats; SH rats, 100 nmol into RVLM): did not alter MAP or HR significantly

CCC1(c2ncc[nH]2)Cc2ccccc2O1 (centres unmarked) [KU-14R, reference compound]
blockade of IAA-RP-induced insulin secretion (I3R [1]; KU-14R 100 μM, IAA-RP 1 μM, diazoxide 200 μM): abolished IAA-RP-induced secretion

COc1nc(C)nc(Cl)c1N=C1NCCN1 [MOX, moxonidine, reference compound]
lowering of MAP (SH rats; SH rats with IAA-RP-elevated MAP, 4 nmol, within 30 min): 37.3±6.3%
reversal of IAA-RP's hypertensive effect (SH rats; SH rats, 4 nmol microinjected): completely reversed IAA-RP's effect

CCC1(C2=NCCN2)Cc2ccccc2O1 (centres unmarked) [efaroxan, reference compound]
blockade of IAA-RP-induced [3H]AA release (I1R; efaroxan 10 μM, before and throughout IAA-RP superfusion): abolished responses to IAA-RP; also recorded: blocked IAA-RP-induced release
concentration of maximal stimulation of insulin release (I3R [2]): ~100 µM

O=C(O)Cc1cncn1[C@@H]1O[C@H](CO)[C@@H](O)[C@H]1O [pros-IAA-R, 1-(β-D-ribofuranosyl)-imidazole-5-acetic acid]
reversal of the inhibitory action of diazoxide on glucose-induced insulin release (I3R [1]): able to reverse the inhibitory action of diazoxide
stimulation of insulin release (in words) (I3R [1]): effects similar to or even greater than that seen with tele IAA-RP
